What was measured:
Details in all cases: Compound concentration 1000.0 nM
[1] = target: T1, Serine/threonine-protein kinase Nek11 (Homo sapiens) (UniProt Q8NG66)
T1 sequence (whole entry): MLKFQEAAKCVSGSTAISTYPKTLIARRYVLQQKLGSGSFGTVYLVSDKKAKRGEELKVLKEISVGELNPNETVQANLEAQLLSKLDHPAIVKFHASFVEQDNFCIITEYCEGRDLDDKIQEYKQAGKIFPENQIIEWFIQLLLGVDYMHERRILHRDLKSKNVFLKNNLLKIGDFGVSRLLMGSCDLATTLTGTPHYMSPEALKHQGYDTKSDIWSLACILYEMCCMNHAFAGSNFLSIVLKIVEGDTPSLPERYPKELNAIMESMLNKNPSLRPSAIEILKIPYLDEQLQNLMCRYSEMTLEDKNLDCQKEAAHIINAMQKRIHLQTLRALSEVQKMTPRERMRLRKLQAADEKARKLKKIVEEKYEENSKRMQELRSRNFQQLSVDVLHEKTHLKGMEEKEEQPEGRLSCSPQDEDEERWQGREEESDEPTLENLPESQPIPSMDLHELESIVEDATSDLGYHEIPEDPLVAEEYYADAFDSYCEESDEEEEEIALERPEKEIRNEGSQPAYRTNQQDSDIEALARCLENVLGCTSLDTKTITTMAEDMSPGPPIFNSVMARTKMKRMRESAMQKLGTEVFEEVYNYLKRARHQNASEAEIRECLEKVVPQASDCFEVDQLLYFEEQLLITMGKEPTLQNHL

[2] = target: Activin receptor type-1-like (Homo sapiens) (UniProt P37023)
Activin receptor type-1-like (Homo sapiens), sequence (P37023 whole entry): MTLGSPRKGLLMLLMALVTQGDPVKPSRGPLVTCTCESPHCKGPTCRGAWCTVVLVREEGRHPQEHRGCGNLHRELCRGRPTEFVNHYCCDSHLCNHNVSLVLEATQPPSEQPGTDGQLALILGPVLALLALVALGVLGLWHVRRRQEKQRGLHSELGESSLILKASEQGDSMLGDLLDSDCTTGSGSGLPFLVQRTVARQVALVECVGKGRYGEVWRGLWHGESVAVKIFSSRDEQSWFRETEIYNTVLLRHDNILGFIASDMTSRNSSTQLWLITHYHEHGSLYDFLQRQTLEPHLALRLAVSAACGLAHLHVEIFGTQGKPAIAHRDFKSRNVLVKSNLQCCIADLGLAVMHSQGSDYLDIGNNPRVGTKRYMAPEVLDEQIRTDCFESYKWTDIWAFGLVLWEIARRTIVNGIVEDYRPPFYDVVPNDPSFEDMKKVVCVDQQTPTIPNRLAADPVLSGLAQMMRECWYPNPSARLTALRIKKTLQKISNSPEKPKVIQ

[3] = target: Myosin light chain kinase family member 4 (Homo sapiens) (UniProt Q86YV6)
Myosin light chain kinase family member 4 (Homo sapiens), sequence (Q86YV6 whole entry): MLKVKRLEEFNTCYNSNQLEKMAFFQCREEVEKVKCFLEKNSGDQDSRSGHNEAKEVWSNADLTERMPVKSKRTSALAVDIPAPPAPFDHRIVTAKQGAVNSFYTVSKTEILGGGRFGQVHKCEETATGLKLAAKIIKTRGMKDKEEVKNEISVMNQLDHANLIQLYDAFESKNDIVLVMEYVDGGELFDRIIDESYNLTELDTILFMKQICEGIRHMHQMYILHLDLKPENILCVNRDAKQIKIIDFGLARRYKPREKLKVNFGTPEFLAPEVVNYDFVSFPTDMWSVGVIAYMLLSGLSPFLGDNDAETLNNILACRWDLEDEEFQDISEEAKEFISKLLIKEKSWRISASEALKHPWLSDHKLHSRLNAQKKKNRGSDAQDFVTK

[4] = target: Hormonally up-regulated neu tumor-associated kinase (Homo sapiens) (UniProt P57058)
Hormonally up-regulated neu tumor-associated kinase (Homo sapiens), sequence (P57058 whole entry): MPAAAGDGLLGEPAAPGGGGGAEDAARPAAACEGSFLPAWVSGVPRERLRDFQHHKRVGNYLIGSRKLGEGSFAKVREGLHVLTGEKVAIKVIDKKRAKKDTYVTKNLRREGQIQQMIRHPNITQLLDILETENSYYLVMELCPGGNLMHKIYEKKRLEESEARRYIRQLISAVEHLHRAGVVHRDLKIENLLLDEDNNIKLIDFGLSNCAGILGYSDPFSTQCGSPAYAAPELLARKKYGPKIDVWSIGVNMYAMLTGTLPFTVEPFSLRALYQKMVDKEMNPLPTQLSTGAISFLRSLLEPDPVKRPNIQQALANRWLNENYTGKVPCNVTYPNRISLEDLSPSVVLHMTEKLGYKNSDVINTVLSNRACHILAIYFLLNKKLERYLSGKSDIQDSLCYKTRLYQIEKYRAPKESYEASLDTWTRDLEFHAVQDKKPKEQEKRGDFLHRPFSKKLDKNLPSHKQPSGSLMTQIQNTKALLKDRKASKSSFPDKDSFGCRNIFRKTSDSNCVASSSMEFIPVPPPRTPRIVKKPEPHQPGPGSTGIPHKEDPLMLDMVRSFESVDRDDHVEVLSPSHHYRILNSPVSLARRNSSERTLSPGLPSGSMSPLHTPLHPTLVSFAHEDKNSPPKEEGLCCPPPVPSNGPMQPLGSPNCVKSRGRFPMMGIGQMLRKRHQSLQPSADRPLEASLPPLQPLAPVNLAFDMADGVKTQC

[5] = target: Cytoplasmic tyrosine-protein kinase BMX (Homo sapiens) (UniProt P51813)
Cytoplasmic tyrosine-protein kinase BMX (Homo sapiens), sequence (P51813 whole entry): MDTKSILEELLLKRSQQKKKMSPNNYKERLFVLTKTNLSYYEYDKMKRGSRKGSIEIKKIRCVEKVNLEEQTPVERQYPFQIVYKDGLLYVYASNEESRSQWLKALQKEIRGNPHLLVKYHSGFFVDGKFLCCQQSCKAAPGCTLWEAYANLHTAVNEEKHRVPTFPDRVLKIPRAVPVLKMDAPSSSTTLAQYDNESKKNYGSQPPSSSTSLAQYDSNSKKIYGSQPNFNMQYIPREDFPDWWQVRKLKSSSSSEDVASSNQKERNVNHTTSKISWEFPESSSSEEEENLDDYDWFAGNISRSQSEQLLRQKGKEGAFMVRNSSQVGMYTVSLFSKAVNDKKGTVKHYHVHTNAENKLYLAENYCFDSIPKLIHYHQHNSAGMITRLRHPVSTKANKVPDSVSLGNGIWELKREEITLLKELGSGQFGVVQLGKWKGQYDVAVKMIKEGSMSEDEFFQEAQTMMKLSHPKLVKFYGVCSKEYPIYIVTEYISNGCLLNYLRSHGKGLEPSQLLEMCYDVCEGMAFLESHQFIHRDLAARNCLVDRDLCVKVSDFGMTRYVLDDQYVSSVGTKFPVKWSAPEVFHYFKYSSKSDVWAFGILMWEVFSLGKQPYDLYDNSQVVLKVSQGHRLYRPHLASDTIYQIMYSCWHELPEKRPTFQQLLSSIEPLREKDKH

[6] = target: T2, Tyrosine-protein kinase ITK/TSK (Homo sapiens) (UniProt Q08881)
T2 sequence (whole entry): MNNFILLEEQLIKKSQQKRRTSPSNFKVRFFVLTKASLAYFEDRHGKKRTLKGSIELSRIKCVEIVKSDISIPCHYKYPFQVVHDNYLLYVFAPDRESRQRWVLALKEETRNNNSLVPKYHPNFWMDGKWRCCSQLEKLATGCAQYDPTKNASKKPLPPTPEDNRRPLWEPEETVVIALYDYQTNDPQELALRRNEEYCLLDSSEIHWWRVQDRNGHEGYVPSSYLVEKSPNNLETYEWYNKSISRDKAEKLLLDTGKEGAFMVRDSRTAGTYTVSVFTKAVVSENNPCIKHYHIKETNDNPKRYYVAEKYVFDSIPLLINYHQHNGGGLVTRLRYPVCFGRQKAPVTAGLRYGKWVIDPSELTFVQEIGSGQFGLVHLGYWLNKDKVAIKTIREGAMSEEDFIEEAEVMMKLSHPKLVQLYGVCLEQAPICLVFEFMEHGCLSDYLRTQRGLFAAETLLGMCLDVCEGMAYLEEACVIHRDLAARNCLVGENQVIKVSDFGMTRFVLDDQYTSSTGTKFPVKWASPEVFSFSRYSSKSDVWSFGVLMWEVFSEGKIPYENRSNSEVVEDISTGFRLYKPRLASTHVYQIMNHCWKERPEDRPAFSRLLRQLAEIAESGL

[7] = target: Serine/threonine-protein kinase MRCK gamma (Homo sapiens) (UniProt Q6DT37)
[8] = target: T3, Ephrin type-A receptor 1 (Homo sapiens) (UniProt P21709)
T3 sequence (whole entry): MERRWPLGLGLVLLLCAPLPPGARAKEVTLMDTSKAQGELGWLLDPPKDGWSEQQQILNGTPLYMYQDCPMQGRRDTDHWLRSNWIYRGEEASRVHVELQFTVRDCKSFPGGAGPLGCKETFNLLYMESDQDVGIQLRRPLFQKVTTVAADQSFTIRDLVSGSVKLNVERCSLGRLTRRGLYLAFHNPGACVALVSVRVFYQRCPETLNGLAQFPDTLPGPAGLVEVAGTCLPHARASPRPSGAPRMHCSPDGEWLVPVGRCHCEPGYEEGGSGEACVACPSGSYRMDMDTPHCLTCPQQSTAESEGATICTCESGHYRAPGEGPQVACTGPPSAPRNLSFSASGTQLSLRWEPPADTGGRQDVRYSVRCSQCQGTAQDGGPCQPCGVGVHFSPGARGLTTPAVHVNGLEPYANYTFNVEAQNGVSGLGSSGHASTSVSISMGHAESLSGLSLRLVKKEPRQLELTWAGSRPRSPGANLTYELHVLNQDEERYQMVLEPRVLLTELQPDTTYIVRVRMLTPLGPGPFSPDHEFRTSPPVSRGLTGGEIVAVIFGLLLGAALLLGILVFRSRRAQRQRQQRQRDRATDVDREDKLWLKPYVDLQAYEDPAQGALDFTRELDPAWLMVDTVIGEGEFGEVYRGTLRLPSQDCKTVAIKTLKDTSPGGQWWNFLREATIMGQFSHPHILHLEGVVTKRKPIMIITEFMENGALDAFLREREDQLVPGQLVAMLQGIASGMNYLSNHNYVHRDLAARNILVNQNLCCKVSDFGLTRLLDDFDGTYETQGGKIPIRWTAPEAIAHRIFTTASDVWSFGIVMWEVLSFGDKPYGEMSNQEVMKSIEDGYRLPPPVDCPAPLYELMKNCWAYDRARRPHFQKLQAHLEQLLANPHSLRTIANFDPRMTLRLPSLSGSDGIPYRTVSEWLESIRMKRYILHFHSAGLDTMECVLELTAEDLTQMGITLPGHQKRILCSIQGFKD

[9] = system: Phosphatidylinositol 4,5-bisphosphate 3-kinase catalytic subunit alpha isoform (Homo sapiens), P42336 [I800L]
Phosphatidylinositol 4,5-bisphosphate 3-kinase catalytic subunit alpha isoform (Homo sapiens), P42336 [I800L], sequence (P42336 whole entry I800L, canonical isoform): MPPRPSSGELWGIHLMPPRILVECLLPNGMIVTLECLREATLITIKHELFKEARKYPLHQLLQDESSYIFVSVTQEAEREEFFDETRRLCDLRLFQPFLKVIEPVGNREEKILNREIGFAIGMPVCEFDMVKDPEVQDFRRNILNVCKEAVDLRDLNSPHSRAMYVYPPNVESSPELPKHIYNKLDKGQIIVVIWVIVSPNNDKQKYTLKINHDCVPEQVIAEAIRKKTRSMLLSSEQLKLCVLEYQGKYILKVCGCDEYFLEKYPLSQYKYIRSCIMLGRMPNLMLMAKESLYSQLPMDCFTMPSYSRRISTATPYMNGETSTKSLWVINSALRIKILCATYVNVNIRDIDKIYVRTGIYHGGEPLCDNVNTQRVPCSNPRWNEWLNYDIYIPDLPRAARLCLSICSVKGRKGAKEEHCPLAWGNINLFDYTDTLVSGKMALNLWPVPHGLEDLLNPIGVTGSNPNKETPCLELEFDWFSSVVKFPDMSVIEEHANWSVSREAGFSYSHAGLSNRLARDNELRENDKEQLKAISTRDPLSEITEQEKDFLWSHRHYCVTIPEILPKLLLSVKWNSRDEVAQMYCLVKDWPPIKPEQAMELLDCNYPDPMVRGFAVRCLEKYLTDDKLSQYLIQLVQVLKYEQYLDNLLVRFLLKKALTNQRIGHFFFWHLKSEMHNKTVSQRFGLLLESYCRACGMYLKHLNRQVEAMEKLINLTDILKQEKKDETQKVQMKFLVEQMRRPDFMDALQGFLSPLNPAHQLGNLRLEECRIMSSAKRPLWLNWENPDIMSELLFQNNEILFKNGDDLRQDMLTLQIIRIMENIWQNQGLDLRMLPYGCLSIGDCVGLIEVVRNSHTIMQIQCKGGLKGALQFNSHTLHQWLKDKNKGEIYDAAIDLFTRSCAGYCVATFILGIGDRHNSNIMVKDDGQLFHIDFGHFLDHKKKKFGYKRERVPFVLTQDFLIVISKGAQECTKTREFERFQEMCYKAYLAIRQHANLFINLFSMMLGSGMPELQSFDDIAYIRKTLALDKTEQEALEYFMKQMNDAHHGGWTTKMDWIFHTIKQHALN

[10] = target: Casein kinase II subunit alpha (Homo sapiens) (UniProt P68400)
Casein kinase II subunit alpha (Homo sapiens), sequence (P68400 whole entry, looked up): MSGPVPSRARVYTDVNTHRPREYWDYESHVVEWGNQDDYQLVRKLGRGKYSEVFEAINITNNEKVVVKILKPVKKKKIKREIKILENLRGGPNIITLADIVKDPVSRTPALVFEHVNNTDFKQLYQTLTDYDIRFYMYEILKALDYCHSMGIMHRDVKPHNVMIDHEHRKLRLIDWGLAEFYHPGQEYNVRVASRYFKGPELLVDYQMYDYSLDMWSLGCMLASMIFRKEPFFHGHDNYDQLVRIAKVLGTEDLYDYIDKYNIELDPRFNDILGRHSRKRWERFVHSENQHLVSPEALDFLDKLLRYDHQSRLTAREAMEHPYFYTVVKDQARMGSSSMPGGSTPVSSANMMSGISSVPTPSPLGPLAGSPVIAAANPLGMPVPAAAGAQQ

[11] = target: Dual specificity testis-specific protein kinase 1 (Homo sapiens) (UniProt Q15569)
Dual specificity testis-specific protein kinase 1 (Homo sapiens), sequence (Q15569 whole entry, looked up): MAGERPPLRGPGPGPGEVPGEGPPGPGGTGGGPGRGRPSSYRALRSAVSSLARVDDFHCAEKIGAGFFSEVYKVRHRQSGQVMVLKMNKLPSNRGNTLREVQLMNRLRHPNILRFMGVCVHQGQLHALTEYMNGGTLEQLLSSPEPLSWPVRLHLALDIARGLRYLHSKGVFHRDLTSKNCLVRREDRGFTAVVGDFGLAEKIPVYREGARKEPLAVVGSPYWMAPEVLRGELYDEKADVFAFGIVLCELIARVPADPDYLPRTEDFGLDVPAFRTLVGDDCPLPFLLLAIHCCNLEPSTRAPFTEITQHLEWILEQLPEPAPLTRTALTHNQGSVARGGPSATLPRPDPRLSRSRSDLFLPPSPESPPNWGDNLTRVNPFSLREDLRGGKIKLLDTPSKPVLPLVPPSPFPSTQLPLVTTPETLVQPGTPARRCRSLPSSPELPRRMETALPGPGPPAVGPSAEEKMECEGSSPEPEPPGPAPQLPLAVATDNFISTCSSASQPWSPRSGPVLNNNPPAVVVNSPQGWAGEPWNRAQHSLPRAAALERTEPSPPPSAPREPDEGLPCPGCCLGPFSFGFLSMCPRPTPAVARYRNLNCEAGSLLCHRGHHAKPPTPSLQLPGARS

[12] = target: Receptor-type tyrosine-protein kinase FLT3 (Homo sapiens) (UniProt P36888)

Measured: residual activity

Cc1nc(C2CCN(C(=O)c3ccc(OC(F)(F)F)cc3N)CC2)c2ncc(N3CCN(C)CC3)cc2n1 [BAY-693]
inactive: [1] 100% | [2] 91% | [3] 100% | [4] 100% | [5] 100% | [6] 89% | [7] 100% | [8] 100% | [9] 96% | [10] 99% | [11] 100% | [12] 100%

CN1CCN(c2cnc3c(C4CCN(C(=O)c5ccc(OC(F)(F)F)cc5N)CC4)ncnc3c2)CC1 [BAY-885]
inactive: [1] 100% | [2] 94% | [3] 100% | [4] 95% | [5] 100% | [6] 100% | [7] 100% | [8] 95% | [9] 100% | [10] 100% | [11] 96% | [12] 97%

— ChEMBL document CHEMBL4507268 (2021)
